Results published in US7166597B2, “Fused pyrazole derivatives being protein kinase inhibitors” (Glaxo Group Limited, priority 2000, dated 2007).
Like-named read-outs stand apart in the source and are kept apart here.

Experiments:
p38 kinase = molecular target: T1, p38 kinase (Homo sapiens, UniProt Q16539); assay: p38 Kinase Assay; assay type: biochemical
T1 construct: GST (N); made in house; host or cells: E. coli
Description: The peptide substrate used in the p38 assay was biotin-IPTSPITTTYFFFRRR-amide. The p38 and MEK6 proteins were purified to homogeneity from E. coli expression systems. The fusion proteins were tagged at the N-terminus with Glutathione-S-Transferase (GST). The maximum activation was achieved by incubating 20 uL of a reaction mixture of 30 nM MEK6 protein and 120 nM p38 protein in the presence of 1.5 uM peptide and 10 mM Mg (CH3CO2)2 in 100 mM HEPES7 pH 7.5, added to 15 uL of a mixture of 1.5 uM ATP with 0.08 uCi [g-^33P]ATP, with or without 15 uL of inhibitor in 6% DMSO. The controls were reactions in the presence (negative controls) or absence (positive controls) of 50 mM EDTA. Reactions were allowed to proceed for 60 min at room temperature and quenched with addition of 50 uL of 250 mM EDTA and mixed with 150 uL of Streptavidin SPA beads (Amersham) to 0.5 mg/reaction. The Dynatech Microfluor white U-bottom plates were sealed and the beads were allowed to settle overnight. The plates were counted in a Packard TopCount for 60 seconds. IC50 values were obtained by fitting raw data to % I=100*(1−(I−C2)/(C1−C2)), where I was […], C1 was positive control, and C2 was negative control.

[1] = molecular target: T2, JNK3 kinase (Jnk-3alpha-2) (Homo sapiens, UniProt P53779); assay: JNK3 Kinase Assay; assay type: biochemical
T2 construct: Jnk-3alpha-2 (as a truncated construct, residues 39 to 224) was expressed in E. coli as a GST fusion protein; Following purification the GST portion was removed by thrombin cleavage; fused on or other part: An N-terminal GST tag was used for expression and removed by thrombin cleavage before the assay
Description: JNK3 Kinase Assay Jnk-3alpha-2 (as a truncated construct, residues 39 to 224) was expressed in E. coli as a GST fusion protein. Following purification the GST portion was removed by thrombin cleavage. The enzyme was stored at −80° C. Substrate c-Jun was expressed as a GST fusion protein including a signal peptide (biotinylation site) in E. coli. Following purification the substrate was biotinylated on a specific lysine in the signal peptide using biotin ligase. Prior to assay Jnk-3 was pre-activated by incubation with MgATP. The enzyme (10 nM) was screened in 40 mM HEPES (pH 7.4), 150 mM NaCl, 20 mM glycerophosphate, 1 mM DTT, 0.2 mM vanadate, 200 nM biotin-c-Jun, 5 mM MgCl2 and 10 uM ATP. Inhibitors were added over a conc range of from 0 to 10 uM in DMSO (fc 3%). The reaction was stopped by the addition of 25 mM EDTA. Phospho-c-Jun was detected using homogeneous time resolved fluorescence (HTRF) with a Eu-labelled antiphosphoserine (Serine 73) and streptavidin APC.

[2] = test system: TNF release from human peripheral blood mononuclear cells (PBMNC); assay: Cell Based Assay for Cytokines Production in PBMNC (TNF release after LPS); conditions: PBMC, read-out: TNF/PBMNC (inhibition of TNF release from human PBMNC following stimulation with LPS, IC50)
Description: Cell Based Assay for Cytokines Production in PBMNC
Human peripheral blood mononuclear cells were isolated from heparinized blood by LSM (Organon Teknika) from volunteer donors. Purified human peripheral blood mononuclear cells were then suspended at a concentration of 2×10^6 cells/ml in RPMI 1640 medium supplemented with 10% heat-inactivated FBS and 1% antibiotics. Aliquots of 100 μl (2×10^5 cells) were added to 96-well microliter plates. Test compounds at […] dose ranges (final-DMSO concentration in culture medium was 0.1%) were then added to the cells for 10–15 minutes before the addition of lipopolysaccharide (1 ng/ml). After incubation at 37° C. in a 5% CO2 incubator for 18–20 h, cell free supernatants were collected by centrifugation at 800 g. The supernatant was then assayed for the amount of TNFα and IL-1β by using Quantikine immunoassay kits developed by R&D Systems (Minneapolis, Minn.).

[3] = Table 9, p38 assays using Assay II, read-out: p38 IC50
[4] = Table 8, compounds wherein Z is N, read-out: p38 kinase (inhibition of p38 kinase, IC50)
[5] = Table 8, read-out: JNK3 kinase (inhibition of JNK3 kinase, IC50)

T1 sequence (Q16539 whole entry): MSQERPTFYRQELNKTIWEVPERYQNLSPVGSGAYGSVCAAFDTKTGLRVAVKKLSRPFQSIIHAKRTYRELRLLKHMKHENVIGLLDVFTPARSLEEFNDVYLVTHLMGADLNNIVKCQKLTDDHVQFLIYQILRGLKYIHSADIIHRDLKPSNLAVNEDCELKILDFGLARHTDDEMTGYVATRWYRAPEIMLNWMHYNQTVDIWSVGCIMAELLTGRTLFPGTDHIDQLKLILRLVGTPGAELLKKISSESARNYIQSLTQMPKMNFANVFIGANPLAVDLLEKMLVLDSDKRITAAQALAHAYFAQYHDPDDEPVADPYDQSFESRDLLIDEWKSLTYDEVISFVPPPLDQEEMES
T2 sequence (P53779 39-402 limits assumed): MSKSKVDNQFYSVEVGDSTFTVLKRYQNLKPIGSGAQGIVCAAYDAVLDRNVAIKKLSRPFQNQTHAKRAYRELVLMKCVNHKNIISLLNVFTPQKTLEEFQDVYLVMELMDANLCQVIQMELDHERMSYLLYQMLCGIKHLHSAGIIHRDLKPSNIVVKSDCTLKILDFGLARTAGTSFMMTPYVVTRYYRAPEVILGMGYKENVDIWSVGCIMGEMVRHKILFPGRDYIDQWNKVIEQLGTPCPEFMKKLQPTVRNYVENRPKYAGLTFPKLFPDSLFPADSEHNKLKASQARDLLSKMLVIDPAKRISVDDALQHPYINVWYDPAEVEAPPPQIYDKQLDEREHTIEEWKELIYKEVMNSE

Structure (SMILES) | IC50 (p38 kinase; [3]) [nM] | IC50 ([1]; Table 9, read-out: JNK3 IC50) [nM] | other results
FC(F)(F)c1ccc(-c2nn3cc(C(F)(F)F)ccc3c2-c2ccnc(NCCCN3CCCCC3)n2)cc1 [Example 112, N-(3-piperidin-1-ylpropyl)-N-(4-{6-(trifluoromethyl)-2-[4-(trifluoromethyl)phenyl]pyrazolo[1,5-a]pyridin-3-yl}pyrimidin-2-yl)amine] | 1000 to 10000 | 1000 to 10000 | –
Fc1ccc(-c2nn3cc(C(F)(F)F)ccc3c2-c2ccnc(NCCN3CCCCCC3)n2)cc1Cl [Example 116, N-(2-azepan-1-ylethyl)-N-{4-[2-(3-chloro-4-fluorophenyl)-6-(trifluoromethyl)pyrazolo[1,5-a]pyridin-3-yl]pyrimidin-2-yl}amine] | 100 to 1000 | 1000 to 10000 | –
Fc1ccc(-c2nn3cc(C(F)(F)F)ccc3c2-c2ccnc(NCCN3CCCC3)n2)cc1Cl [Example 104, N-{4-[2-(3-chloro-4-fluorophenyl)-6-(trifluoromethyl)pyrazolo-[1,5-a]pyridin-3-yl]pyrimidin-2-yl}-N-(2-pyrrolidin-1-ylethyl)amine] | 100 to 1000 | 1000 to 10000 | –
CCCN(CCC)CCNc1nccc(-c2c(-c3cccc(Cl)c3)nn3cc(C(F)(F)F)ccc23)n1 [Example 99, N-{4-[2-(3-chlorophenyl)-6-(trifluoromethyl)pyrazolo[1,5-a]pyridin-3-yl]pyrimidin-2-yl}-N-[2-(dipropylamino)ethyl]amine] | 100 to 1000 | 1000 to 10000 | –
Cc1ccc(C)c(Oc2nccc(-c3c(-c4ccc(F)cc4)nn4cc(C(F)(F)F)ccc34)n2)c1 [Example 86, 3-[2-(2,5-Dimethylphenoxy)pyrimidin-4-yl]-2-(4-fluorophenyl)-6-(trifluoromethyl)pyrazolo[1,5-a]pyridine] | – | – | IC50 (p38 kinase; [4]): < 500 nM; IC50 [1, 5]: < 500 nM
FC(F)(F)c1ccc2c(-c3ccnc(NCCN4CCCCCC4)n3)c(-c3cccc(Cl)c3)nn2c1 [Example 117, N-(2-azepan-1-ylethyl)-N-{4-[2-(3-chlorophenyl)-6-(trifluoromethyl)pyrazolo[1,5-a]pyridin-3-yl]pyrimidin-2-yl}amine] | 100 to 1000 | 1000 to 10000 | –
Fc1ccc(-c2nn3cc(C(F)(F)F)ccc3c2-c2ccnc(NCCCN3CCOCC3)n2)cc1Cl [Example 122, N-{4-[2-(3-chloro-4-fluorophenyl)-6-(trifluoromethyl)pyrazolo[1,5-a]pyridin-3-yl]pyrimidin-2-yl}-N-(3-morpholin-4-ylpropyl)amine] | 100 to 1000 | 100 to 1000 | –
Fc1ccc(-c2nn3ccccc3c2-c2ccnc(NCCc3cnc[nH]3)n2)cc1 [Example 80, 4-[2-(4-Fluorophenyl)pyrazolo[1,5-a]pyridin-3-yl]-N-[2-(1H-imidazol-5-yl)ethyl]-2-pyrimidinamine] | – | – | IC50 (p38 kinase; [4]): < 500 nM; IC50 ([2]; Table 8, LPS stimulation): < 500 nM
CCCN1CCN(CCNc2nccc(-c3c(-c4ccc(F)c(Cl)c4)nn4cc(C(F)(F)F)ccc34)n2)CC1 [Example 128, N-{4-[2-(3-chloro-4-fluorophenyl)-6-(trifluoromethyl)pyrazolo-[1,5-a]pyridin-3-yl]pyrimidin-2-yl}-N-[2-(4-propylpiperazin-1-yl)ethyl]amine] | 10 to 100 | 100 to 1000 | –
CCCN1CCN(CCNc2nccc(-c3c(-c4ccc(C(F)(F)F)cc4)nn4cc(C(F)(F)F)ccc34)n2)CC1 [Example 127, N-[2-(4-propylpiperazin-1-yl)ethyl]-N-(4-{6-(trifluoromethyl)-2-[4-(trifluoromethyl)phenyl]pyrazolo[1,5-a]pyridin-3-yl}pyrimidin-2-yl)amine] | 1000 to 10000 | 1000 to 10000 | –
CN(C)CCCNc1nccc(-c2c(-c3ccc(C(F)(F)F)cc3)nn3cc(C(F)(F)F)ccc23)n1 [Example 88, N-[3-(dimethylamino)propyl]-N-[4-{6-(trifluoromethyl)-2-[4-(trifluoromethyl)phenyl]pyrazolo[1,5-a]pyridin-3-yl}pyrimidin-2-yl]amine] | 1000 to 10000 | 1000 to 10000 | –
Fc1ccc(-c2nn3cc(C(F)(F)F)ccc3c2-c2ccnc(Oc3ccccc3)n2)cc1 [Example 84, 2-(4-Fluorophenyl)-3-(2-phenoxypyrimidin-4-yl)-6-(trifluoromethyl)pyrazolo[1,5-a]pyridine] | – | – | IC50 (p38 kinase; [4]): < 500 nM; IC50 [1, 5]: < 500 nM
Fc1ccc(-c2nn3cc(C(F)(F)F)ccc3c2-c2ccnc(NCCN3CCOCC3)n2)cc1Cl [Example 120, N-{4-[2-(3-chloro-4-fluorophenyl)-6-(trifluoromethyl)pyrazolo[1,5-a]pyridin-3-yl]pyrimidin-2-yl}-N-(2-morpholin-4-ylethyl)amine] | 10 to 100 | 100 to 1000 | –
FC(F)(F)c1ccc2c(-c3ccnc(NCCCN4CCOCC4)n3)c(-c3cccc(Cl)c3)nn2c1 [Example 123, N-{4-[2-(3-chlorophenyl)-6-(trifluoromethyl)pyrazolo[1,5-a]pyridin-3-yl]pyrimidin-2-yl}-N-(3-morpholin-4-ylpropyl)amine] | 10 to 100 | 100 to 1000 | –
Fc1ccc(-c2nn3cc(C(F)(F)F)ccc3c2-c2ccncc2)cc1 [Example 23, 2-(4-Fluorophenyl)-3-(4-pyridinyl)-6-(trifluoromethyl)pyrazolo[1,5-a]pyridine] | – | – | IC50 (p38 kinase; Table 7, compounds wherein Z is CH, read-out: P38 kinase (inhibition of p38 kinase, IC50)): < 500 nM; IC50 ([2]; Table 7, LPS stimulation): < 500 nM
CN1CCN(CCCNc2nccc(-c3c(-c4ccc(F)cc4)nn4cc(C(F)(F)F)ccc34)n2)CC1 [Example 124, N-{4-[2-(4-fluorophenyl)-6-(trifluoromethyl)pyrazolo[1,5-a]pyridin-3-yl]pyrimidin-2-yl}-N-[3-(4-methylpiperazin-1-yl)propyl]amine] | 10 to 100 | 100 to 1000 | –
FC(F)(F)c1ccc2c(-c3ccnc(NCCCCN4CCCC4)n3)c(-c3cccc(Cl)c3)nn2c1 [Example 106, N-{4-[2-(3-chlorophenyl)-6-(trifluoromethyl)pyrazolo[1,5-a]pyridin-3-yl]pyrimidin-2-yl}-N-(4-pyrrolidin-1-ylbutyl)amine] | 10 to 100 | 100 to 1000 | –
CN(C)CCCNc1nccc(-c2c(-c3ccc(F)c(Cl)c3)nn3cc(C(F)(F)F)ccc23)n1 [Example 89, N-[4-{2-[3-chloro-4-fluorophenyl]-6-(trifluoromethyl)pyrazolo-[1,5-a]pyridin-3-yl}pyrimidin-2-yl]-N-[3-(dimethylamino)propyl]amine] | 10 to 100 | 1000 to 10000 | –
CN(C)CCCNc1nccc(-c2c(-c3cccc(Cl)c3)nn3cc(C(F)(F)F)ccc23)n1 [Example 90, N-{4-[2-(3-chlorophenyl)-6-(trifluoromethyl)pyrazolo[1,5-a]pyridin-3-yl]pyrimidin-2-yl}-N-[3-(dimethylamino)propyl]amine] | 10 to 100 | 1000 to 10000 | –
